Results published in patent US11400063B2, “Early administration of low-dose colchicine after myocardial infarction” (INSTITUT DE CARDIOLOGIE DE MONTREAL, priority 2019, dated 2022).

System: patients recruited within 30 days after a myocardial infarction
Test: COLCOT time-to-treatment initiation (TTI) analysis
Type: in vivo, human
Settings: for All Coronary Revascularizations, HR (95% CI) / All-cause death, HR (95% CI) / MI, HR (95% CI) / Primary composite endpoint, HR (95% CI) / Resuscitated cardiac arrest, HR (95% CI) / Secondary Composite Endpoint, HR (95% CI) / Stroke, HR (95% CI) / Urgent hospitalization for angina requiring coronary revascularization, HR (95% CI): colchicine vs. placebo
Protocol: The results of the COLCOT trial have been further analyzed to determine if time to treatment initiation (TTI) had any effect on the outcome of the treatment. Three different cutoffs for TTI were used in order to determine the association between early initiation of therapy and clinical outcomes. These cutoffs were determined based on the usual journey of patients with MI. The first 30-day post-MI timeline was divided into three independent periods of time, and analyzed as such: from day 0 to 3, referring to in-hospital management; from day 4 to 7, referring to early post-discharge period and from day 8 to 30, referring to late post-discharge period.
COLCOT was an international multicenter, randomized, double-blinded trial that randomly assigned patients to receive either low-dose colchicine (0.5 mg once daily) or placebo. The study protocol and main results have been published (see, Tardif et al., N Engl J Med 2019). […] Main exclusion criteria were severe heart failure, reduced left ventricular ejection fraction (<35%), recent stroke (<3 months), type 2 MI, recent (<3 years) or planned coronary artery bypass graft (CABG), history of cancer (<3 years), and inflammatory bowel disease or chronic diarrhea. All patients enrolled in the trial benefited from percutaneous coronary intervention whenever indicated and guidelines-directed management of CV disease prior to randomization (see. Tardif et al., N Engl J Med 2019).
The primary efficacy endpoint was a composite of CV death, resuscitated cardiac arrest, MI, stroke, or urgent hospitalization for angina requiring coronary revascularization. The secondary endpoints consisted of the components of the primary efficacy endpoint, all-cause death, and a composite of CV death, resuscitated cardiac arrest, MI, or stroke. Exploratory endpoints included all coronary revascularizations, including both elective and urgent coronary revascularizations.
Three different cutoffs for TTI were used in order to determine the association between early initiation of therapy and clinical outcomes. These cutoffs were determined based on the usual journey of patients with MI. The first 30-day post-MI timeline was divided into three independent periods of time, and analyzed as such: from day 0 to 3, referring to in-hospital management; from day 4 to 7, referring to early post-discharge period and from day 8 to 30, referring to late post-discharge period.
Both the TTI of less than 4 days and the TTI of less than 5 days was were calculated using a basic model (Table 4 and Table 6) as well as an adjusted model (Table 5 and Table 7) which is described below in the statistical analysis section. In all cases, the interaction p-value was not significant (p>0.05), meaning that the conclusion over Placebo vs. Colchicine group can be obtained directly from the respective p-values for HR. In other words, relationships within the placebo and colchicine groups with TTI are both linear/parallel and the interpretation is straightforward.
For the present TTI analysis, the data were centrally analyzed by an independent academic biostatistics center at the Montreal Health Innovations Coordinating Center. The analysis was conducted amongst patients who received at least one dose of the study medication (referred to as the safety population in the main protocol, FIG. 1). TTI was defined as the length of time in days between the index MI and the initiation of the study medication, and three specific cutoffs were analyzed ([…], days 4 to […]). Early initiation of therapy was defined as TTI≤3 days. Baseline characteristics were summarized using counts and percentages for categorical variables and mean±standard deviation (SD) for continuous variables. For each baseline characteristic, comparisons were made using ANOVA for continuous variables and Chi-Square test for categorical variables according to TTI strata. […]

[1] = TTI 0-3 days, listed as colchicine

Structure (SMILES): COc1cc2c(c(OC)c1OC)-c1ccc(OC)c(=O)cc1[C@@H](NC(C)=O)CC2 [Colchicine, colchicine]
- All Coronary Revascularizations, % of patients (TTI 0-3 days, N = 1193): 5.5%
- All Coronary Revascularizations, no. of patients (TTI 0-3 days, N = 1193): 33 no.
- All-cause death, % of patients (TTI 0-3 days, N = 1193): 1.0%
- All-cause death, no. of patients (TTI 0-3 days, N = 1193): 6 no.
- MI, % of patients (TTI 0-3 days, N = 1193): 2.8%
- MI, no. of patients (TTI 0-3 days, N = 1193): 17 no.
- Primary composite endpoint, % of patients (TTI 0-3 days, N = 1193): 4.3%
- Primary composite endpoint, no. of patients (TTI 0-3 days, N = 1193): 26 no.
- Resuscitated cardiac arrest, % of patients (TTI 0-3 days, N = 1193): 0.2%
- Resuscitated cardiac arrest, no. of patients (TTI 0-3 days, N = 1193): 1 no.
- Secondary Composite Endpoint, % of patients (TTI 0-3 days, N = 1193): 3.3%
- Stroke, % of patients (TTI 0-3 days, N = 1193): 0.2%
- Stroke, no. of patients (TTI 0-3 days, N = 1193): 1 no.
- Urgent hospitalization for angina requiring coronary revascularization, % of patients (TTI 0-3 days, N = 1193): 1%
- Urgent hospitalization for angina requiring coronary revascularization, no. of patients (TTI 0-3 days, N = 1193): 6 no.
- Secondary Composite Endpoint, no. of patients (TTI 0-3 days, N = 1193, CV death, resuscitated cardiac arrest, MI or stroke): 20 no.
- All Coronary Revascularizations, HR (95% CI) (TTI 0-3 days): 0.63 (0.40-0.97); p = 0.037
- All-cause death, HR (95% CI) (TTI 0-3 days): 1.03 (0.33-3.19); p = 0.962
- MI, HR (95% CI) (TTI 0-3 days): 0.58 (0.32-1.05); p = 0.071
- Primary composite endpoint, HR (95% CI) (TTI 0-3 days): 0.52 (0.32-0.84); p = 0.007
- Resuscitated cardiac arrest, HR (95% CI) (TTI 0-3 days): 0.33 (0.03-3.20); p = 0.340
- Secondary Composite Endpoint, HR (95% CI) (TTI 0-3 days): 0.55 (0.32-0.95); p = 0.031
- Stroke, HR (95% CI) (TTI 0-3 days): 0.21 (0.02-1.81); p = 0.156
- Urgent hospitalization for angina requiring coronary revascularization, HR (95% CI) (TTI 0-3 days): 0.35 (0.14-0.88); p = 0.026
- All Coronary Revascularizations, HR (95% CI) [1]: 0.63
- All-cause death, HR (95% CI) [1]: 1.03
- MI, HR (95% CI) [1]: 0.58
- Primary composite endpoint, HR (95% CI) [1]: 0.52
- Resuscitated cardiac arrest, HR (95% CI) [1]: 0.33
- Secondary Composite Endpoint, HR (95% CI) [1]: 0.55
- Stroke, HR (95% CI) [1]: 0.21
- Urgent hospitalization for angina requiring coronary revascularization, HR (95% CI) [1]: 0.35
- All Coronary Revascularizations, % of patients (TTI 4-7 days, N = 720): 6.9%
- All Coronary Revascularizations, no. of patients (TTI 4-7 days, N = 720): 25 no.
- All-cause death, % of patients (TTI 4-7 days, N = 720): 2.2%
- All-cause death, no. of patients (TTI 4-7 days, N = 720): 8 no.
- MI, % of patients (TTI 4-7 days, N = 720): 4.4%
- MI, no. of patients (TTI 4-7 days, N = 720): 16 no.
- Primary composite endpoint, % of patients (TTI 4-7 days, N = 720): 6.0%
- Primary composite endpoint, no. of patients (TTI 4-7 days, N = 720): 22 no.
- Resuscitated cardiac arrest, % of patients (TTI 4-7 days, N = 720): 0.5%
- Resuscitated cardiac arrest, no. of patients (TTI 4-7 days, N = 720): 2 no.
- Secondary Composite Endpoint, % of patients (TTI 4-7 days, N = 720): 4.9%
- Secondary Composite Endpoint, no. of patients (TTI 4-7 days, N = 720): 18 no.
- Stroke, % of patients (TTI 4-7 days, N = 720): 0.3%
- Stroke, no. of patients (TTI 4-7 days, N = 720): 1 no.
- Urgent hospitalization for angina requiring coronary revascularization, % of patients (TTI 4-7 days, N = 720): 1.1%
- Urgent hospitalization for angina requiring coronary revascularization, no. of patients (TTI 4-7 days, N = 720): 4 no.
- All Coronary Revascularizations, HR (95% CI) (TTI 4-7 days): 1.41 (0.76-2.61); p = 0.275
- All-cause death, HR (95% CI) (TTI 4-7 days): 1.03 (0.37-2.84); p = 0.957
- MI, HR (95% CI) (TTI 4-7 days): 1.67 (0.74-3.78); p = 0.218
- Primary composite endpoint, HR (95% CI) (TTI 4-7 days): 0.96 (0.53-1.75); p = 0.896
- Resuscitated cardiac arrest, HR (95% CI) (TTI 4-7 days): 1.90 (0.17-20.95); p = 0.600
